The target of assay [1] is Tyrosine-protein kinase Blk (Mus musculus, UniProt P16277). Kind of assay: Inhibition of mouse BLK.
Assay [2] concerns the target Tyrosine-protein kinase receptor UFO (Homo sapiens) (UniProt P30530). Put plainly: Inhibition of AXL at 10 uM.
In assay [3] the target is Tyrosine-protein kinase Fes/Fps (Homo sapiens) (UniProt P07332). Put plainly: Inhibition of FES at 10 uM.
Assay [4] addresses T1, High affinity nerve growth factor receptor (Homo sapiens, UniProt P04629). Kind of assay: Inhibition of TRKA at 10 uM.
For assay [5], the target named is T2, BDNF/NT-3 growth factors receptor (Homo sapiens, UniProt Q16620). Put plainly: Inhibition of TRKB at 10 uM.
Assay [6] addresses T3, Angiopoietin-1 receptor (Homo sapiens, UniProt Q02763). Put plainly: Inhibition of TIE2 at 10 uM.
Assay [7] deals with Interleukin-1 receptor-associated kinase 4 (Homo sapiens) (UniProt Q9NWZ3). Put plainly: Inhibition of IRAK4 at 10 uM.
Interleukin-1 receptor-associated kinase 4 (Homo sapiens), sequence (Q9NWZ3 whole entry): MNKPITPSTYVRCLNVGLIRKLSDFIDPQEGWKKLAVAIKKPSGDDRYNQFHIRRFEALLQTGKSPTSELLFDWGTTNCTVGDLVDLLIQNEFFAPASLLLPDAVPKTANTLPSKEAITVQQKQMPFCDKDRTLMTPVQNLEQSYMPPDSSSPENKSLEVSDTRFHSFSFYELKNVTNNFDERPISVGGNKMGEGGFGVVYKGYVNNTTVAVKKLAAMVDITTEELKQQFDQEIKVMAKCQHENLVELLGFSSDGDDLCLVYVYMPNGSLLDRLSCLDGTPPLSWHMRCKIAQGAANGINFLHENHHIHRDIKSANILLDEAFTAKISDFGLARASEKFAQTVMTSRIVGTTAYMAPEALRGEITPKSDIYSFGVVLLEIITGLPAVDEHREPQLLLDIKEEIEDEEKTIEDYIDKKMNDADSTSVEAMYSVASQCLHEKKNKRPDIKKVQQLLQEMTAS
In assay [8] the target is Mitogen-activated protein kinase kinase kinase kinase 5 (Homo sapiens, UniProt Q9Y4K4). Put plainly: Inhibition of MAP4K5.
Assay [9] concerns the target Tyrosine-protein kinase ABL2 (Homo sapiens, UniProt P42684). Kind of assay: Inhibition of ABL2.
Assay [10] concerns the target Tyrosine-protein kinase Fgr (Homo sapiens, UniProt P09769). Kind of assay: Inhibition of FGR.
The target in assay [11] is Tyrosine-protein kinase FRK (Homo sapiens, UniProt P42685). Kind of assay: Inhibition of FRK.
The target in assay [12] is Tyrosine-protein kinase BTK (Homo sapiens, UniProt Q06187). Kind of assay: Inhibition of BTK.
Assay [13] deals with Activated CDC42 kinase 1 (Homo sapiens, UniProt Q07912). Put plainly: Inhibition of TNK2.
The target in assay [14] is Tyrosine-protein kinase HCK (Homo sapiens, UniProt P08631). Kind of assay: Inhibition of HCK.
Assay [15] deals with Serine/threonine-protein kinase 24 (Homo sapiens, UniProt Q9Y6E0). Kind of assay: Inhibition of STK24.
Assay [16] addresses Mitogen-activated protein kinase kinase kinase kinase 2 (Homo sapiens, UniProt Q12851). Kind of assay: Inhibition of MAP4K2.
Assay [17] deals with Misshapen-like kinase 1 (Homo sapiens, UniProt Q8N4C8). Kind of assay: Inhibition of MINK1.
The target of assay [18] is Tyrosine-protein kinase CSK (Homo sapiens, UniProt P41240). Kind of assay: Inhibition of CSK.
Assay [19] has as its target Protein-tyrosine kinase 2-beta (Homo sapiens, UniProt Q14289). Kind of assay: Inhibition of PTK2B.
The target in assay [20] is Calcium/calmodulin-dependent protein kinase type II subunit gamma (Homo sapiens, UniProt Q13555). Put plainly: Inhibition of CAMK2G.
Assay [21] concerns the target Tyrosine-protein kinase Tec (Homo sapiens, UniProt P42680). Put plainly: Inhibition of TEC.
For assay [22], the target named is Serine/threonine-protein kinase TBK1 (Homo sapiens, UniProt Q9UHD2). Kind of assay: Inhibition of TBK1.
Assay [23] deals with Interleukin-1 receptor-associated kinase 4 (Homo sapiens, UniProt Q9NWZ3). Put plainly: Inhibition of IRAK4.
Interleukin-1 receptor-associated kinase 4, sequence (Q9NWZ3 whole entry): as above
Assay [24] addresses T3, Angiopoietin-1 receptor. Kind of assay: Inhibition of TIE2.
Assay [25] concerns the target T1, High affinity nerve growth factor receptor. Put plainly: Inhibition of TRKA.
Target sequence in this assay (P04629 whole entry): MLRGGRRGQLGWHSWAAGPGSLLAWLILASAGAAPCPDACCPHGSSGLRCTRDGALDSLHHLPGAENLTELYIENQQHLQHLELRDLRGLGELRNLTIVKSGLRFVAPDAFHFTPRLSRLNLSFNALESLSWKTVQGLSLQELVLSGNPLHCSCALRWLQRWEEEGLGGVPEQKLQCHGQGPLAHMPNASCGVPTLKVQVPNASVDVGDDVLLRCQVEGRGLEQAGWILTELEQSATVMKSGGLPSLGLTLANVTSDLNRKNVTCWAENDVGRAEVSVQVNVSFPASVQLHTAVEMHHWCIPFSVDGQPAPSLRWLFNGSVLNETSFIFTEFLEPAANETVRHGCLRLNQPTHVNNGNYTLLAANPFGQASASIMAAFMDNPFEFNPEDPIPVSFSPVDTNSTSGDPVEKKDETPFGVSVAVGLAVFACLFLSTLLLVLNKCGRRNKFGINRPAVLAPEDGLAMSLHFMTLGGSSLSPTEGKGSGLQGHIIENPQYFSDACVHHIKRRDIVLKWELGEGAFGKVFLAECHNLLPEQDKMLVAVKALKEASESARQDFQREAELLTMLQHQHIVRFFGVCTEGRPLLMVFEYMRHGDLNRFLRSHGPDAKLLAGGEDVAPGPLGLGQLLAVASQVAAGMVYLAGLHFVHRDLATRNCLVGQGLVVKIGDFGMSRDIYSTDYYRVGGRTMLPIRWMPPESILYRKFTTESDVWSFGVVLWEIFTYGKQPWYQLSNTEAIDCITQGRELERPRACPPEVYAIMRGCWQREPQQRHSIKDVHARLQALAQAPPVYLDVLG
Assay [26] has as its target T2, BDNF/NT-3 growth factors receptor. Kind of assay: Inhibition of TRKB.
For assay [27], the target named is Tyrosine-protein kinase TXK (Homo sapiens, UniProt P42681). Put plainly: Inhibition of TXK.
Tyrosine-protein kinase TXK, sequence (P42681 whole entry): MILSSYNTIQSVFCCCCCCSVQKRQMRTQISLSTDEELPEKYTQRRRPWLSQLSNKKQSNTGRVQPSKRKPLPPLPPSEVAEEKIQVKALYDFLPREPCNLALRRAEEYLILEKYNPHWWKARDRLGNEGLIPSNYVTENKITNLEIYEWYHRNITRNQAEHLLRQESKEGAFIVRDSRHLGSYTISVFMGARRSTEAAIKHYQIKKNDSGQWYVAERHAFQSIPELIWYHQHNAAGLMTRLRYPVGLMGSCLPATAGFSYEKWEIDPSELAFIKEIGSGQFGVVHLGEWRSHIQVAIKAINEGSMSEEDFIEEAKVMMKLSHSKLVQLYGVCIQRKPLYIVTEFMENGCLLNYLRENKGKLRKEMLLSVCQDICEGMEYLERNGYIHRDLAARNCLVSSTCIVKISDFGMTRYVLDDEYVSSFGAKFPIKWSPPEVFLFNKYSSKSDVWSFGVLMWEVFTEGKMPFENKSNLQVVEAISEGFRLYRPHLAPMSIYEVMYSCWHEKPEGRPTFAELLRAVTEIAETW

T3 sequence (Q02763 whole entry): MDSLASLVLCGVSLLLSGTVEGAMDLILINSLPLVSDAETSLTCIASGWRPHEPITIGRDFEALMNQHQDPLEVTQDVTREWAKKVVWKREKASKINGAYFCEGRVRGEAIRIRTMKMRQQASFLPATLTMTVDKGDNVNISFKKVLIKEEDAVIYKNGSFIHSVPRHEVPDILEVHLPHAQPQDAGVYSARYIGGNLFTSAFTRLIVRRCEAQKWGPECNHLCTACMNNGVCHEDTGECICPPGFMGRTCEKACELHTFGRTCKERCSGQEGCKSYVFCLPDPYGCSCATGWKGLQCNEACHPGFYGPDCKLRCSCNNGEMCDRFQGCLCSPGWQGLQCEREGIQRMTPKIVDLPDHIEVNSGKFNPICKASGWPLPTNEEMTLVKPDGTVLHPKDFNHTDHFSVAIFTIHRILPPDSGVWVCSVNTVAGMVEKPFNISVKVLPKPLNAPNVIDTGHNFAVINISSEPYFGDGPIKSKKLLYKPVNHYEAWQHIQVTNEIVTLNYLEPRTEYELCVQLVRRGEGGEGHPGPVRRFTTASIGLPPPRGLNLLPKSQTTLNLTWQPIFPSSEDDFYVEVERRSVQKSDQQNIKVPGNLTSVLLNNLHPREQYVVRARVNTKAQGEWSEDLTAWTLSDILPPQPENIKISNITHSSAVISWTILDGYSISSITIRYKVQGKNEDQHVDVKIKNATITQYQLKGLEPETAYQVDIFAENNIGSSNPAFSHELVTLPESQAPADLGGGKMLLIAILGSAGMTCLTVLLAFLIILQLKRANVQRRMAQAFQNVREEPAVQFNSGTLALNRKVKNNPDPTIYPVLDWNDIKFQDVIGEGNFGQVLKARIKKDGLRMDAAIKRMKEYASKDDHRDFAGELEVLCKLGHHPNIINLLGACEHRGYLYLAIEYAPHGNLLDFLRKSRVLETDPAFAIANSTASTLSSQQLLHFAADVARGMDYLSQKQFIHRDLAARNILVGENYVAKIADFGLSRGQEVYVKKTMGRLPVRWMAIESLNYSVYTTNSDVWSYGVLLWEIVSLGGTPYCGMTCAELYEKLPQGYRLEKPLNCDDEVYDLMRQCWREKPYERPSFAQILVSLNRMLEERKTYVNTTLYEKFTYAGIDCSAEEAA
Tyrosine-protein kinase Blk, sequence (P16277 whole entry): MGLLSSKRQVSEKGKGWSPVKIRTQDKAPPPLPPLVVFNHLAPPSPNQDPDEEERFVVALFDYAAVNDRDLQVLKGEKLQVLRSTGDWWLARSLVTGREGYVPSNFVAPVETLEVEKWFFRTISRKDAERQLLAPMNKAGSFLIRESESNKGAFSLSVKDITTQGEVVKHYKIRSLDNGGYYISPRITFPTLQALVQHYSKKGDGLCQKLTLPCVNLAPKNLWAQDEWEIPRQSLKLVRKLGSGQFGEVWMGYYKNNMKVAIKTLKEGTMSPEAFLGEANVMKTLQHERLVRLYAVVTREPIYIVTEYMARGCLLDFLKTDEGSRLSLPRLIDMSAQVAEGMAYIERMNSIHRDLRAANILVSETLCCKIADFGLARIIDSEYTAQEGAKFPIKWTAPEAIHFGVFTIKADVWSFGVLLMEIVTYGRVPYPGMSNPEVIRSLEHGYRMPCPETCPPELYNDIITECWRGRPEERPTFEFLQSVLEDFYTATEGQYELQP
Tyrosine-protein kinase Fgr, sequence (P09769 whole entry): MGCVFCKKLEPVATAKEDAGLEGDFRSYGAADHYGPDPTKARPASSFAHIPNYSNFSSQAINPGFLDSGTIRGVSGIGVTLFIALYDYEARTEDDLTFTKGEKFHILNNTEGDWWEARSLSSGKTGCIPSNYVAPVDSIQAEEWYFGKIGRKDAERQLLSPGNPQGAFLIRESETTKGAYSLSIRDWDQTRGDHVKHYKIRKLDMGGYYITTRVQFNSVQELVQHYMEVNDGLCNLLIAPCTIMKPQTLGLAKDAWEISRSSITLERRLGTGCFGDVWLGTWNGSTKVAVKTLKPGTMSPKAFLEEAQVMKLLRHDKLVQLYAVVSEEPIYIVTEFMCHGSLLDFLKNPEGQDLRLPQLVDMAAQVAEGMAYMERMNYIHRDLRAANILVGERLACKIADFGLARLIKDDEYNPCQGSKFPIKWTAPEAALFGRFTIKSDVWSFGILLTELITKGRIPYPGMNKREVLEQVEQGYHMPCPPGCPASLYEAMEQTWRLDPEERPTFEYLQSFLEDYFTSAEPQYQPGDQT
Tyrosine-protein kinase receptor UFO (Homo sapiens), sequence (P30530 whole entry): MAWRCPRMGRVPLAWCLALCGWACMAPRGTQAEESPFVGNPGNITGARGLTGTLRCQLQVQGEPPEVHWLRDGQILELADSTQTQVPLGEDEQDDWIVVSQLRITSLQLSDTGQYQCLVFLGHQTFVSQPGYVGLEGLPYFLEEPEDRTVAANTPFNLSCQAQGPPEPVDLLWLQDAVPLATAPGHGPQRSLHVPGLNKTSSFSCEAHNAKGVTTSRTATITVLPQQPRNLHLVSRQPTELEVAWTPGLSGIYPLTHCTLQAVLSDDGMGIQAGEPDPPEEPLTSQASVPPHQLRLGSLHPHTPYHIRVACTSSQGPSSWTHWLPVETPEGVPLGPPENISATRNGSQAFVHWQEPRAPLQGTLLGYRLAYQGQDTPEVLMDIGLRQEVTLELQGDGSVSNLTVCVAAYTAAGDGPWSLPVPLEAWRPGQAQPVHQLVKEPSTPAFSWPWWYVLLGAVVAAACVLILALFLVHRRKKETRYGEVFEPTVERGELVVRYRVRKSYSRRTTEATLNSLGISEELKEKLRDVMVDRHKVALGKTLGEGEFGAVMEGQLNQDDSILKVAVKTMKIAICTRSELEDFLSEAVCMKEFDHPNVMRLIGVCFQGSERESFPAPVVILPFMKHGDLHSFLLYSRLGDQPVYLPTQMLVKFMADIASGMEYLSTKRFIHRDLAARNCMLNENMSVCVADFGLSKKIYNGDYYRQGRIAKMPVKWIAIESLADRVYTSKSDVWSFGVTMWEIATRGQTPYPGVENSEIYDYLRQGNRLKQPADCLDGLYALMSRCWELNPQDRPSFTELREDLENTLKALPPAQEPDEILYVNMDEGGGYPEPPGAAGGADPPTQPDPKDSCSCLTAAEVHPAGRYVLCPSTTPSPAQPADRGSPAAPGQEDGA

As to `Cc1nc(Nc2ncc(C(=O)Nc3c(C)cccc3Cl)s2)cc(N2CCN(CCO)CC2)n1` [DASATINIB], the IC50 in assay [1] came out at 0.008 µM. The residual activity came to 86% in assay [2]; 83% in [3]; 35% in assay [4]; 52% in [5]; 48% in assay [6]; 84% in [7].

For `COc1cc(Nc2c(C#N)cnc3cc(OCCCN4CCN(C)CC4)c(OC)cc23)c(Cl)cc1Cl` [BOSUTINIB], the IC50 in assay [8] amounted to 0.0003 µM; in assay [9], 0.0005 µM; in assay [10], 0.0011 µM; in assay [11] it was 0.0022 µM; in [12] it was 0.0025 µM; in [13], 0.0027 µM. In addition, the IC50 in [14] is 0.0032 µM; in assay [15], 0.0039 µM; in assay [16] it was 0.0099 µM; in assay [17], 0.022 µM; in assay [18], 0.063 µM; in assay [19] it was 0.134 µM. Also, the IC50 in assay [20] was 0.184 µM; in assay [21], 0.282 µM; in assay [22], 0.471 µM; in assay [1], 0.0073 µM; in assay [23] it was 0.574 µM; in [24] it was 1.19 µM. The IC50 in assay [25] amounted to 0.022 µM; in [26], 0.027 µM; in [27], 0.04 µM.

By IC50 is commonly meant the concentration at which inhibition is half-maximal. The term residual activity denotes the share of the control activity or signal that is left under treatment. A low value points to a large loss of activity.

The values are drawn from ChEMBL document CHEMBL1240341 (Leukemia, 2009).
